Experimental data from article PMC6627609, “Targeting Quorum Sensing: High-Throughput Screening to Identify Novel LsrK Inhibitors” (International Journal of Molecular Sciences, 2019).
Where a name gives a salt, the structure may show the parent alone.

The compounds below were run against LsrK (Salmonella typhimurium, UniProt Q8ZKQ6) (assay: biochemical). Conditions: not given.
Assay type: biochemical, S. typhimurium

LsrK, sequence (Q8ZKQ6 whole entry): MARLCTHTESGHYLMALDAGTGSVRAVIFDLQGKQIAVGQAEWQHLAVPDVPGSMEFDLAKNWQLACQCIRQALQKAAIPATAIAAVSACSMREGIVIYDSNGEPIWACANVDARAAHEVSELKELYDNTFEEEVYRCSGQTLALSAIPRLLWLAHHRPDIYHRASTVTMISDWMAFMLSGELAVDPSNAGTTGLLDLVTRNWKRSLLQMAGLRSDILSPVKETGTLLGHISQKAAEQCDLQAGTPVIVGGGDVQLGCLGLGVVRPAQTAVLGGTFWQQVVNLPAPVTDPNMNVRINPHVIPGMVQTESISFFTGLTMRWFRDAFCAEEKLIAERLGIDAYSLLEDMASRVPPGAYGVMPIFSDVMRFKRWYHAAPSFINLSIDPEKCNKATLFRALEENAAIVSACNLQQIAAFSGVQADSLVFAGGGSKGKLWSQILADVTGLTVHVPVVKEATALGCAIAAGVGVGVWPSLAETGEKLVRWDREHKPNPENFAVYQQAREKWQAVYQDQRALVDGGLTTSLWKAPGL

Compound	inhibition at 50 µM	IC50
O=c1c(O)c(-c2ccc(O)c(O)c2)oc2cc(O)ccc12 [FISETIN]	33%	–
O=c1[nH]cc(F)c(=O)[nH]1 [FLUOROURACIL]	0%	–
COc1cc2ccc(=O)oc2cc1O [SCOPOLETIN]	1%	–
CCCCC1(COC(=O)CCC(=O)O)C(=O)N(c2ccccc2)N(c2ccccc2)C1=O [SUXIBUZONE]	8%	–
NCc1ccc(S(N)(=O)=O)cc1 [MAFENIDE HYDROCHLORIDE]	1%	–
Nc1nc2nc[nH]c2c(=S)[nH]1 [THIOGUANINE]	1%	–
C#C[C@]1(O)CC[C@H]2[C@@H]3CCC4=C(CCC(=O)C4)[C@H]3CC[C@@]21C [NORETHYNODREL]	1%	–
O=C(O)C1CCCNC1 (stereo not drawn) [NIPECOTIC ACID]	0%	–
c1ccc2[nH]c(-c3cscn3)nc2c1 [THIABENDAZOLE]	5%	–
C=C1[C@H]2CC[C@@]3(C)[C@H](c4ccoc4)OC(=O)C[C@]13O[C@H]1C[C@H](O)C(C)(C)[C@H](CC(=O)OC)[C@]12C [3-DEOXY-3beta-HYDROXY[…] METHYL ESTER]	1%	–
CC[C@@]1(O)C(=O)OCc2c1cc1n(c2=O)Cc2cc3cc(O)ccc3nc2-1 [10-HYDROXYCAMPTOTHECIN]	1%	–
CN(C)C(=S)SSC(=S)N(C)C [THIRAM]	104%	–
O=c1c(O)cc([C@H]2Oc3cc(O)cc(O)c3C[C@H]2O)cc2c([C@H]3Oc4cc(O)cc(O)c4C[C@H]3O)cc(O)c(O)c12 [THEAFLAVIN]	133%	–
COC(=O)C(N)CS (stereo not drawn) [MECYSTEINE HYDROCHLORIDE]	112%	–
C[C@H]1C[C@H]2[C@@H]3CCC4=CC(=O)C=C[C@]4(C)[C@@]3(F)[C@@H](O)C[C@]2(C)[C@@]1(O)C(=O)CO [BETAMETHASONE]	1%	–
C[C@H]1C(=O)CC[C@@H]2[C@]1(C)CC[C@H]1[C@@]2(C)CC[C@@]2(C)[C@@H]3CC(C)(C)CC[C@]3(C)CC[C@]12C [FRIEDELIN]	1%	–
C[C@H]1COC2=C1C(=O)C(=O)c1c2ccc2c1CCCC2(C)C [CRYPTOTANSHINONE]	16%	–
CC[C@@H](CO)NC(=O)[C@@H]1C=C2c3cccc4[nH]cc(c34)C[C@H]2N(C)C1 [METHYLERGONOVINE MALEATE]	1%	–
CN1CCC(=C2c3ccccc3Sc3ccccc32)CC1 [PIMETHIXENE MALEATE]	0%	–
COc1cc(NS(C)(=O)=O)ccc1Nc1c2ccccc2nc2ccccc12 [AMSACRINE]	1%	–
O=C(OOC(=O)c1ccccc1)c1ccccc1 [BENZOYL PEROXIDE]	11%	–

Compound	inhibition at 50 µM	IC50
Nc1ccc(S(=O)(=O)Nc2cnc3ccccc3n2)cc1 [SULFAQUINOXALINE SODIUM]	1%	–
Nc1nc2c(ncn2COCCO)c(=O)[nH]1 [ACYCLOVIR]	8%	–
COc1cc(-c2coc3cc(O)c(OC)c(O)c3c2=O)cc(O)c1OC [[…]]	5%	–
N#Cc1c(Cl)c(Cl)c(Cl)c(C#N)c1Cl [TETRACHLOROISOPHTHALONITRILE]	138%	9 µM
Nc1ccccc1S(N)(=O)=O [2-AMINOBENZENESULFONAMIDE]	1%	–
Nc1nc(N)c2nc(-c3ccccc3)c(N)nc2n1	0%	–
CC1(C)C(=O)C=C[C@]2(C)[C@H]3CC[C@@]4(C)[C@H](c5ccoc5)OC(=O)[C@H]5O[C@]54[C@]3(C)[C@H](O)C[C@@H]12 [DEACETYLGEDUNIN]	1%	–
N#C/C(=C\c1ccc(O)cc1)C(=O)O [alpha-CYANO-4-HYDROXYCINNAMIC ACID]	1%	–
CC(=O)OCC1=C(C(=O)O)N2C(=O)[C@@H](NC(=O)Cc3cccs3)[C@H]2SC1 [CEPHALOTHIN SODIUM]	1%	–
COC1=CC(=O)C(O)=C/C1=C\C=C\c1ccccc1 [OBTUSAQUINONE]	130%	–
CC(C)[C@@H](C)/C=C/[C@@H](C)[C@H]1CC[C@H]2C3=CC=C4C[C@@H](O)CC[C@]4(C)[C@H]3CC[C@]12C [ERGOSTEROL]	0%	–
CCN1C[C@]2(COC)[C@H](O)C[C@H](OC)[C@@]34[C@@H]5C[C@@]6(O)[C@H](OC(=O)c7ccccc7)[C@@H]5[C@@](OC(C)=O)([C@@H]([C@H](OC)[C@H]23)[C@@H]14)[C@@H](O)[C@@H]6OC [ACONITINE]	1%	–
CN(C(=O)C(Cl)Cl)c1ccc(OC(=O)c2ccco2)cc1 [DILOXANIDE FUROATE]	4%	–
CC(=O)O[C@H]1C(=O)[C@@]2(C)[C@H]([C@H](OC(=O)c3ccccc3)[C@]3(O)C[C@H](O)C(C)=C1C3(C)C)[C@]1(OC(C)=O)CO[C@@H]1C[C@@H]2O [BACCATIN III]	9%	–
O=C1c2cccc(O)c2C(=O)c2c(O)cccc21 [DANTHRON]	1%	–
COc1ccc2c(c1)OC/C(=C\c1ccc(OC)c(O)c1)C2=O [SAPPANONE A DIMETHYL ETHER]	2%	–
C[C@H](CCC(=O)O)[C@H]1CC[C@H]2[C@@H]3CCC4CCCC[C@]4(C)[C@H]3C=C[C@]12C (stereo partly drawn) [CHOL-11-ENIC ACID]	45%	–
C=C1C(=O)O[C@@H]2C[C@@]3(C)CCC[C@H](C)C3=C[C@H]12 [HELENINE]	2%	–
CCn1cc(C(=O)O)c(=O)c2cc(F)c(N3CCNCC3)nc21 [ENOXACIN]	0%	–
CC1(C)S[C@@H]2[C@H](NC(=O)[C@H](C(=O)O)c3ccsc3)C(=O)N2[C@H]1C(=O)O [TICARCILLIN DISODIUM]	0%	–
O=C(O)[C@@H](O)[C@](O)(Cc1ccc(O)cc1)C(=O)O [PISCIDIC ACID]	2%	–

Compound	inhibition at 50 µM	IC50
CC(C)[C@H](N)C(=O)OCCOCn1cnc2c(=O)[nH]c(N)nc21 [VALACYCLOVIR HYDROCHLORIDE]	2%	–
CCOC(=O)C1=C(C)NC(C)=C(C(=O)OC)C1c1cccc([N+](=O)[O-])c1 (stereo not drawn) [NITRENDIPINE]	1%	–
Nc1ccc(C(=O)O)c(O)c1 [AMINOSALICYLATE SODIUM]	1%	–
COc1cc(NC(C)CCCN)c2ncccc2c1 (stereo not drawn) [PRIMAQUINE DIPHOSPHATE]	89%	–
OC(c1cc(C(F)(F)F)nc2c(C(F)(F)F)cccc12)C1CCCCN1 (stereo not drawn) [MEFLOQUINE]	32%	–
CCCCCC1C(=O)CCC1CC(=O)O (stereo not drawn) [DIHYDROJASMONIC ACID]	1%	–
CN1[C@@H](CC(=O)c2ccccc2)CCC[C@H]1C[C@H](O)c1ccccc1 [LOBELINE HYDROCHLORIDE]	1%	–
COC(=O)[C@H](c1ccccc1Cl)N1CCc2sccc2C1 [CLOPIDOGREL SULFATE]	11%	–
COc1cc(O)cc(OC)c1OC [ANTIAROL]	21%	–
NC1=NCCN1CC(=O)O [CYCLOCREATINE]	0%	–
CNc1ccccc1C(=O)O	1%	–
OCC(S)CS (stereo not drawn) [DIMERCAPROL]	125%	–
CC(=O)OCC(=O)[C@@]1(O)CC[C@H]2[C@@H]3CCC4=CC(=O)C=C[C@]4(C)[C@H]3[C@@H](O)C[C@@]21C [PREDNISOLONE ACETATE]	0%	–
O=[N+]([O-])O[C@@H]1CO[C@H]2[C@@H]1OC[C@@H]2O [ISOSORBIDE MONONITRATE]	0%	–
COC(=O)/C=C/C(C)=C\C=C\C(C)=C\C=C\C=C(C)\C=C\C=C(C)\C=C\C(=O)O [BIXIN]	79%	–
CC(C)CCC[C@@H](C)[C@H]1CC[C@H]2[C@@H]3CC(=O)[C@H]4C[C@@H](O)CC[C@]4(C)[C@H]3CC[C@]12C [5alpha-CHOLESTAN-3beta-OL-6-ONE]	1%	–
O=c1[nH]cnc2nc[nH]c12 [HYPOXANTHINE]	2%	–
CCN(CC)CCCC(C)Nc1c2ccc(Cl)cc2nc2ccc(OC)cc12 (stereo not drawn) [QUINACRINE HYDROCHLORIDE]	3%	–
CC1=C(/C=C/C(C)=C/C=C/C(C)=C/C=C/C=C(C)/C=C/C=C(C)/C=C/C2=C(C)CCCC2(C)C)C(C)(C)CCC1 [beta-CAROTENE]	1%	–
Cc1cc(O)c(C=O)c2c1C(=O)Oc1c(COC(=O)/C=C/C(=O)O)c(O)c(C(=O)O)c(C)c1O2 [FUMARPRO[…]]	150%	7 µM

Same assay, conditions: 50 µM

Compound	Inhibition (%)
O=c1cc(-c2ccccc2O)oc2cc(O)ccc12 [7.2'-DIHYDROXYFLAVONE]	76
OC[C@H]1O[C@H]([S-])[C@H](O)[C@@H](O)[C@@H]1O.[Au+] [AUROTHIOGLUCOSE]	104
NEOMYCIN SULFATE	1
CNCc1ccccc1.Cl [N-METHYLBENZYLAMINE HYDROCHLORIDE]	0
C=C[C@@](C)(O)CC[C@H]1C(=C)C[C@H](OC(C)=O)[C@H]2C(C)(C)CCC[C@]12C [LARIXOL ACETATE]	3
NC(=O)CC[C@H](N)C(=O)O [GLUTAMINE (L)]	0
C=CCCCCCCCCC(=O)[O-].C=CCCCCCCCCC(=O)[O-].[Zn+2] [ZINC UNDECYLENATE]	21
CC[C@H](CC[C@@H](C)[C@H]1CC[C@H]2[C@@H]3CC[C@H]4C[C@@H](O)CC[C@]4(C)[C@H]3CC[C@]12C)C(C)C [FUCOSTANOL]	1
COc1ccc(-c2coc3cc(O)cc(O)c3c2=O)cc1 [BIOCHANIN A]	25
C[N+]1(C)CCOC(O)(c2ccc(-c3ccc(C4(O)C[N+](C)(C)CCO4)cc3)cc2)C1.[Br-].[Br-] (stereo not drawn) [HEMICHOLINIUM BROMIDE]	1
CC(=O)OCC1=C(C(=O)[O-])N2C(=O)[C@@H](NC(=O)CCCC(N)C(=O)O)[C@H]2SC1.[Na+] (stereo partly drawn) [CEPHALOSPORIN C SODIUM]	32
MANGANESE TETRAKIS(4-CARBOXYPHENYL)PORPHYRIN CHLORDE	1
O=c1c(O)c(-c2ccccc2)oc2cc(O)ccc12 [3.7-DIHYDROXYFLAVONE]	0
C=CC(C1=CC(=O)C(OC)=CC1=O)c1ccc(OC)cc1 (stereo not drawn) [4.4'-DIMETHOXYDALBERGIONE]	98
O=C(O)CCCCC1CCSS1 (stereo not drawn) [THIOCTIC ACID]	170%
CC(=O)O[C@H]1[C@H]2[C@@H](OC(=O)Cc3ccccc3)[C@@H](C)C[C@]2(OC(C)=O)C(=O)/C(C)=C/[C@@H]2[C@H](CC[C@@]13CO3)C2(C)C [EUPHORBIASTEROID]	1
Nc1nc[nH]n1 [3-AMINO-1.2.4-TRIAZOLE]	1
